From ChEMBL document CHEMBL1129966, “Substituted indole-2-carboxylates as in vivo potent antagonists acting as the strychnine-insensitive glycine binding site” (J Med Chem, 1997)

Columns and labels:
[1] = target: Glutamate receptor ionotropic, NMDA 1 (Rattus norvegicus, UniProt P35439); assay: Inhibition of [3H]glycine to glycine binding site, associated with the N-methyl-D-aspartate glutamate receptor 1 in crude synaptic membranes prepared from adult rat cerebral cortex.; type: cell membranes
[2] = target: Glutamate receptor ionotropic, NMDA 1 (Rattus norvegicus) (UniProt P35439); assay: Antagonistic activity by using [3H]TCP radioligand (non competitive inhibition) at strychnine-insensitive N-methyl-D-aspartate glutamate receptor 1
[3] = tested on: Mus musculus; assay: Effective dose to inhibit convulsions induced by NMDA in mice, when administered intravenous route.; type: functional
[4] = tested on: Mus musculus; assay: Effective dose to inhibit convulsions induced by NMDA in mice, when administered peroral route.; type: functional; conditions: po

SMILES | Ki [1] | also measured
CCN(CC)c1ccc(NC(=O)/C=C/c2c(C(=O)O)[nH]c3cc(Cl)cc(Cl)c23)cc1 | 100 nM | –
NC(=O)Nc1ccc(NC(=O)/C=C/c2c(C(=O)O)[nH]c3cc(Cl)cc(Cl)c23)cc1 | 1.58 nM | –
O=C(O)c1cc2c(Cl)cc(Cl)cc2[nH]1 | 2000 nM | –
O=C(/C=C/c1c(C(=O)O)[nH]c2cc(Cl)cc(Cl)c12)Nc1ccc(F)cc1 | 6.31 nM | –
CC(C)(C)OC(=O)/C=C/c1c(C(=O)O)[nH]c2cc(Cl)cc(Cl)c12 | 501 nM | –
O=C(/C=C/c1c(C(=O)O)[nH]c2cc(Cl)cc(Cl)c12)Nc1ccc([N+](=O)[O-])cc1 | 100 nM | –
COc1ccc(NC(=O)/C=C/c2c(C(=O)O)[nH]c3cc(Cl)cc(Cl)c23)c(C)c1 | 20 nM | –
O=C(/C=C/c1c(C(=O)O)[nH]c2cc(Cl)cc(Cl)c12)Nc1ccc(C(=O)O)cc1 | 63.1 nM | –
O=C(/C=C/c1c(C(=O)O)[nH]c2cc(Cl)cc(Cl)c12)Nc1ccc(Cl)c([N+](=O)[O-])c1 | 126 nM | –
O=C(/C=C/c1c(C(=O)O)[nH]c2cc(Cl)cc(Cl)c12)Nc1cccc([N+](=O)[O-])c1F | 5.01 nM | –
O=c1[nH]c2cc(Cl)c(Cl)c([N+](=O)[O-])c2[nH]c1=O [LICOSTINEL] | 7.94 nM | ED50 [3]: 0.21 mg/kg
Nc1cccc(NC(=O)/C=C/c2c(C(=O)O)[nH]c3cc(Cl)cc(Cl)c23)c1 | 5.01 nM | –
O=C(Nc1ccccc1)N[C@H]1C[C@H](C(=O)O)Nc2cc(Cl)cc(Cl)c21 | 6.31 nM | ED50 [3]: 0.21 mg/kg
CN(C)c1ccc(NC(=O)/C=C/c2c(C(=O)O)[nH]c3cc(Cl)cc(Cl)c23)cc1 | 12.6 nM | –
CC(C)c1ccccc1NC(=O)/C=C/c1c(C(=O)O)[nH]c2cc(Cl)cc(Cl)c12 | 50.1 nM | –
O=C(/C=C/c1c(C(=O)O)[nH]c2cc(Cl)cc(Cl)c12)Nc1ccc(C(F)(F)F)cc1 | 158 nM | –
O=C(O)/C=C/c1c(C(=O)[O-])[nH]c2cc(Cl)cc(Cl)c12.[Na+] | 20 nM | ED50 [3]: 17.2 mg/kg; ED50 [4]: > 200 mg/kg
Nc1ccc(NC(=O)/C=C/c2c(C(=O)O)[nH]c3cc(Cl)cc(Cl)c23)cc1 | 1.26 nM | –
O=C(O)CCc1c(C(=O)[O-])[nH]c2cc(Cl)cc(Cl)c12.[Na+] | 39.8 nM | ED50 [3]: > 10 mg/kg
O=C(/C=C/c1c(C(=O)O)[nH]c2cc(Cl)cc(Cl)c12)Nc1ccc(F)cc1[N+](=O)[O-] | 31.6 nM | –

More lines, main results first:

Ki [1] | SMILES | also measured
3.16 nM | Nc1ccccc1NC(=O)/C=C/c1c(C(=O)O)[nH]c2cc(Cl)cc(Cl)c12 | –
3.16 nM | O=C(/C=C/c1c(C(=O)[O-])[nH]c2cc(Cl)cc(Cl)c12)Nc1ccccc1.[Na+] [GAVESTINEL SODIUM] | pA2 [2]: 8.1; ED50 [3]: 0.06 mg/kg; ED50 [4]: 6 mg/kg
25.1 nM | O=C(CCc1c(C(=O)[O-])[nH]c2cc(Cl)cc(Cl)c12)Nc1ccccc1.[Na+] | ED50 [3]: 3.7 mg/kg
3.98 nM | O=C(/C=C/c1c(C(=O)O)[nH]c2cc(Cl)cc(Cl)c12)Nc1cccc(O)c1 | –
200 nM | O=C(/C=C/c1c(C(=O)O)[nH]c2cc(Cl)cc(Cl)c12)Nc1ccc(Nc2ccccc2)cc1 | –
126 nM | O=C(/C=C/c1c(C(=O)[O-])[nH]c2cc(Cl)cc(Cl)c12)NCc1ccccc1.[Na+] | ED50 [3]: > 30 mg/kg; ED50 [4]: > 200 mg/kg
2 nM | O=C(/C=C/c1c(C(=O)O)[nH]c2cc(Cl)cc(Cl)c12)Nc1ccc(O)cc1 | –
1 nM | O=c1[nH]c2cc(Cl)ccc2c(O)c1-c1cccc(Oc2ccccc2)c1 | ED50 [3]: 0.78 mg/kg
10 nM | O=C(/C=C/c1c(C(=O)O)[nH]c2cc(Cl)cc(Cl)c12)Nc1cccc([N+](=O)[O-])c1O | –
25.1 nM | O=C(/C=C/c1c(C(=O)O)[nH]c2cc(Cl)cc(Cl)c12)Nc1ccccc1[N+](=O)[O-] | –
794 nM | O=C(O)c1[nH]c2cc(Cl)cc(Cl)c2c1/C=C/S(=O)(=O)Nc1ccccc1 | –
